The term IC50 denotes the point on the concentration scale where inhibition reaches its midpoint. Lower therefore signals inhibition by little substance.

Structures are written as SMILES.

IC50 data for two compounds are collected here from BindingDB's records for doi:10.1021/jm00113a025 (Merck Sharp and Dohme Research Laboratories, 1991).

The test concerns the target T1, Dimer of Gag-Pol polyprotein [489-587] (Human immunodeficiency virus 1, UniProt P04585).
T1 construct: 489-587
Nature of the test: Protease Inhibition Assay. The note with it: pH 5.5; 30 °C. As to the method: Sensitivity of HIV-1 protease activity to protease inhibitors was determined by a peptide substrate cleavage assay. Protease products were analyzed on a reverse-phase high-pressure liquid chromatograph.

Compound `CC(C)C[C@H](NC(=O)[C@H](Cc1ccccc1)C[C@H](O)[C@H](Cc1ccccc1)NC(=O)OC(C)(C)C)C(=O)N[C@@H](Cc1ccccc1)C(N)=O` [Hydroxyethylene dipeptide isostere] returned an IC50 of 0.6 nM. Then `CCC(C)[C@H](NC(=O)[C@H](Cc1ccccc1)C[C@H](O)[C@H](Cc1ccccc1)NC(=O)OC(C)(C)C)C(=O)N[C@@H](Cc1ccccc1)C(N)=O` (stereo partly drawn) [tert-butyl N-[(2S,3S,5R)-5-benzyl-5-{[(1S,2S)-1-{[(1S)-1-carbamoyl-2-phenylethyl]carbamoyl}-2-methylbutyl]carbamoyl}-3-hydroxy-1-phenylpentan-2-yl]carbamate], with 0.25 nM.
